Experiments:
WiDr (colon) = test: Antiproliferative activity, WiDr; assay type: cell-based, human; conditions: for GI50: Homo sapiens
Procedure: (§1) The in vitro antiproliferative activity of investigated compounds was evaluated against six human solid tumor cell lines: A549 (non-small cell lung), HBL-100, (breast), HeLa (cervix), SW1573 (non-small cell lung), as drug sensitive lines, T-47D (breast) and WiDr (colon) as drug resistant lines. These cell lines were a kind gift from Prof. G. J. Peters (VU Medical Center, Amsterdam, The Netherlands). For selectivity studies, the human fibroblasts BJ-hTert cell line was used, which was obtained from Dr. R. Freire (HUC, Tenerife, Canary Islands). Cells were kept in culture medium under standard conditions: RPMI 1640 medium, fetal bovine serum (5%), glutamine (2 mM), penicillin G (100 units/mL) and streptomycin (0.1 mg/mL). Antiproliferative tests were conducted as described earlier (Skehan et al., [1990]; Miranda et al., [2006]). Tested compounds were dissolved in DMSO at an initial concentration of 40 mM. DMSO was used as negative control (0.25% v/v). Antiproliferative activity of the compounds was expressed as GI50, which is the concentration of the compound that inhibits 50% of the culture growth.

[1] = test system: human fibroblasts BJ-hTert cell line; test: Selectivity, non-transformed fibroblasts BJ-hTert; assay type: cell-based; conditions: Fibroblast; BJ-hTert normal human cell line; concentrations up to 100 μM
Procedure: as §1

T-47D (breast) = test: Antiproliferative activity, T-47D; assay type: cell-based, human
Procedure: as §1

[2] = Total antioxidant capacity (TAOC), modified phosphomolybdenum method; conditions: concentration providing 0.500 of absorbance at 695 nm; mean ± SD, n = 3
Procedure: (§2) Volume of 0.4 mL of sample solution (50–1,000 μM) was mixed with 1.6 mL of reagent solution [0.6 M H2SO4, 28 mM Na3PO4, and 4 mM (NH4)2MoO4] and resulting mixtures were incubated at 95°C for 90 min. The cooled reaction mixtures were then centrifuged for 10 min (3,000 rpm). The absorbance of the supernatant solution was measured, 1 h after centrifugation, at 695 nm against reagent solution as blank. An increased absorbance in reading in both assays indicated increased antioxidant power, expressed as EC50 values (the sample concentration giving absorbance of 0.500 from the graph of absorbance at 700 nm or 695 nm against compound concentration) (Prieto et al., [1999]).

[3] = Total reducing power (TRP), modified potassium ferricyanide reduction method; conditions: concentration providing 0.500 of absorbance at 700 nm; mean ± SD, n = 3
Procedure: The mixture containing 0.5 mL of phosphate buffer (0.2 M, pH = 6.6), 0.5 mL of K3[Fe(CN)6] (1%; w/v) and 0.5 mL of the samples (100–1,500 μM) was incubated at 50°C for 20 min. A volume of 0.5 mL of trichloroacetic acid (TCA, 10%; w/v), 0.5 mL of Milli-Q water and 0.5 mL of FeCl3 (0.1%; w/v) was added, followed by intensive vortexing. The absorbance of the resulting mixture was measured after 60 min at 700 nm using phosphate buffer as blank (Oyaizu, [1986]).
as §2

[4] = Oxygen radical absorbance capacity (ORAC) assay; conditions: Trolox equivalents; mean ± SD, n = 3
Procedure: A modification of original protocol was used (Ou et al., [2001]). Stock solutions of fluorescein substrate (5 μM) and free radical generator AAPH (0.5 M) were prepared in 75 mM potassium phosphate buffer (pH = 7.4). Volume of 100 μL of sample solutions or Trolox in DMSO (20 μM) were mixed with 1,485 μL of buffer and 15 μL of fluorescein solution. The 30 min reaction at 37°C was initiated by adding 250 μL of AAPH solution. Fluorescence conditions were as follows: excitation and emission wavelengths 485 and 511 nm, respectively, slits 2 nm. The relative sample ORAC value was expressed as Trolox equivalents (TE).

[5] = test system: A549 (non-small cell lung); test: Antiproliferative activity, A549; assay type: cell-based, human; conditions: for GI50: Homo sapiens
Procedure: as §1

[6] = DPPH scavenging antioxidant assay; conditions: concentration providing 50% of radicals scavenging activity; mean ± SD, n = 3
Procedure: The experiments were performed according to the literature protocol (Prior et al., [2005]). All tested compounds were initially dissolved in DMSO. The initial concentration of DPPH in methanol was 6.58 × 10^−5 M. A volume of 140 μL of DPPH solution was placed into a 96-well microplate, and then 10 μL solution of the tested compounds was added. Pure DMSO (10 μL) was used as the control. The absorbance at 517 nm was measured after 30 min period of incubation in the dark at 25°C. The Equation (1) was used for calculation of the scavenging activity:
(1) Scavenging activity (%)=Acontrol- Asample/Acontrol×100
where Asample and Acontrol refer to the absorbances at 517 nm of the sample and control, respectively. IC50 values were calculated from the graph of scavenging activity against the concentrations of the samples. IC50 represents the total antioxidant concentration of the sample which decreases the amount of the initial DPPH radical by 50%. Ascorbic acid (vitamin C) was used as positive control (concentration range 10–500 μM).

[7] = test system: SW1573 (non-small cell lung); test: Antiproliferative activity, SW1573; assay type: cell-based, human; conditions: for GI50: Homo sapiens
Procedure: as §1

GI50 (T-47D (breast); Homo sapiens, T47D) [µM]	Compound	antiproliferative activity class WiDr (WiDr (colon))	GI50 (WiDr (colon)) [µM]	GI50 [1] [µM]	antiproliferative activity class T-47D (T-47D (breast); T-47D)	EC50 [2] [µM]	EC50 [3] [µM]	ORAC [4] [TE]	antiproliferative activity class A549 [5]	GI50 [5] [µM]	IC50 [6] [µM]	antiproliferative activity class SW1573 [7]	GI50 [7] [µM]	melting point [°C]	GI50 (T-47D (breast); Homo sapiens, T47D, T-47D) [µM]	GI50 (T-47D (breast); T-47D) [µM]
6.4 ± 0.9	C(=NNc1nc(-c2ccccc2)c[se]1)c1ccccc1 [Compound 1, 2-(2-benzylidenehydrazinyl)-4-phenyl-1,3-selenazole]	good activity (good activity (GI50 = 1–10 μM))	4.8 ± 0.8	> 100	good activity (good activity (GI50 = 1–10 μM))	648 ± 55	990 ± 92	0.75 ± 0.05	moderate activity (moderate activity (GI50 = 10–100 μM))	28 ± 7.1	8.63 ± 1.66	moderate activity (moderate activity (GI50 = 10–100 μM))	24 ± 8	178 to 180		
	COc1ccc(-c2c[se]c(NN=Cc3ccccc3)n2)cc1 [Compound 1-OMe, 2-(2-benzylidenehydrazinyl)-4-(4-methoxyphenyl)-1,3-selenazole]		> 100	> 100		548 ± 53	806 ± 85	0.74 ± 0.06		> 100	54.3 ± 4.54		42 ± 7.7	180 to 182	> 100	
	O=[N+]([O-])c1ccccc1C=NNc1nc(-c2ccccc2)c[se]1 [Compound 2, 2-(2-(2-nitrobenzylidene)hydrazinyl)-4-phenyl-1,3-selenazole]	good activity (good activity (GI50 = 1–10 μM))	5 ± 0.9	> 100		357 ± 41	390 ± 48	0.82 ± 0.07	good activity (good activity (GI50 = 1–10 μM))	4.9 ± 1.5	21.9 ± 5.6	good activity (good activity (GI50 = 1–10 μM))	5.3 ± 0.6	183 to 184	~10	12 ± 1.5
	Cc1ccc(-c2c[se]c(NN=Cc3ccccc3[N+](=O)[O-])n2)cc1 [Compound 2-Me, 2-(2-(2-nitrobenzylidene)hydrazinyl)-4-(p-tolyl)-1,3-selenazole]	good activity (good activity (GI50 = 1–10 μM))	8.2 ± 1	> 100		416 ± 45	470 ± 41	0.77 ± 0.05	good activity (good activity (GI50 = 1–10 μM))	8.8 ± 2.2	20.2 ± 4.3	good activity (good activity (GI50 = 1–10 μM))	4.6 ± 1.2	170 to 171	~10	13 ± 1.3
	COc1ccc(-c2c[se]c(NN=Cc3ccccc3[N+](=O)[O-])n2)cc1 [Compound 2-OMe, 4-(4-methoxyphenyl)-2-(2-(2-nitrobenzylidene)hydrazinyl)-1,3-selenazole]		22 ± 2.3	> 100		433 ± 39	560 ± 53	0.82 ± 0.07		22 ± 5.6	40.5 ± 3.8		46 ± 10	165 to 166	36 ± 8.6	
	O=[N+]([O-])c1cccc(C=NNc2nc(-c3ccccc3)c[se]2)c1 [Compound 3, 2-(2-(3-nitrobenzylidene)hydrazinyl)-4-phenyl-1,3-selenazole]		40 ± 0.6	> 100		325 ± 38	420 ± 45	0.90 ± 0.06	good activity (good activity (GI50 = 1–10 μM))	6.1 ± 0.8	174 ± 11.6		16 ± 4.8	216 to 218	52 ± 13	
	Cc1ccc(-c2c[se]c(NN=Cc3cccc([N+](=O)[O-])c3)n2)cc1 [Compound 3-Me, 2-(2-(3-nitrobenzylidene)hydrazinyl)-4-(p-tolyl)-1,3-selenazole]		55 ± 19	> 100		571 ± 45	480 ± 50	0.83 ± 0.05		44 ± 15	152 ± 10.1		18 ± 4.5	203 to 206	46 ± 9.7	
	COc1ccc(-c2c[se]c(NN=Cc3cccc([N+](=O)[O-])c3)n2)cc1 [Compound 3-OMe, 4-(4-methoxyphenyl)-2-(2-(3-nitrobenzylidene)hydrazinyl)-1,3-selenazole]		> 100	> 100		632 ± 50	488 ± 46	0.86 ± 0.07		52 ± 1	298 ± 14.8	good activity (good activity (GI50 = 1–10 μM))	8.4 ± 0.2	201 to 203	67 ± 2.2	

— article PMC6037691, “Selenazolyl-hydrazones as Novel Selective MAO Inhibitors With Antiproliferative and Antioxidant Activities: Experimental and In-silico Studies” (Frontiers in Chemistry, 2018)
